Experimental findings from patent US11351148B1, “Pharmaceutical composition Mix A to treat health conditions associated with elevated glucose levels” (priority 2021, dated 2022) are described below.

The test system of this test is skeletal muscle cells. Put plainly: In vitro uptake of 2-DG (glucose derivative) in skeletal muscle cells. Format: cell-based, rat. The method, then: The assay was performed according to manufactures' protocol. Briefly, […] L6 cell line cells were seeded and grown to confluency in white 96 well plates in culture medium containing 10% FBS (serum). After treating with various nutrients with or without insulin cells were starved by incubating in DMEM without glucose and serum. Samples were processed using Glucose Uptake Assay kit according to manufacturer's protocol that uses the glucose analog 2-deoxyglucose (2-DG) to detect and quantify glycose uptake in cells. Luminescence was measured by a Tecan luminometer. 4 repetitions were performed for each treatment when testing individual components and 3 repetitions when testing mixes.

Consider “Insulin: human insulin obtained from Sigma”, for which, under “FIG. 8, insulin alone at different concentrations”, the “glucose uptake by the cells, insulin alone” value is recorded as “concentration dependent increase”. Consider `[Cr]` [chromium], for which the “stimulating effect on glucose uptake by individual compounds compared to controls” value (FIG. 6, 0.0001 ug/ml, 24 h at 37° C.) is listed as “highest stimulating effect”.
